What was measured:
[1] = tested on: human colorectal cancer cells (HCT15); assay: NanoSPECT/CT imaging of colorectal cancer animal model; format: in vivo, BALB/c nude mouse; conditions: caudal vein, 25 mCi/kg, imaged at 2, 4, 24, 48 h
Description: (1) Each BALB/c nude mouse that was 8 weeks old was subjected to subcutaneous injection of human colorectal cancer cells (HCT15, 1*10^6 cells) on a right hind leg, grew for 10-14 d, and started to be dosed with the drug when a cell tumor grew to a size of 50-100 mm^3.
(3) NanoSPECT/CT image analysis was carried out at 2nd h, 4th h, 24th h and 48th h after animal dosage (brand: Mediso).
(4) Obtained images were subjected to image recombination and outputting by VivoQuamt software.

[2] = tested on: human colorectal cancer cells (HCT15); assay: Colorectal cancer animal bio-distribution (gamma counter); format: in vivo, BALB/c nude mouse; conditions: 25 mCi/kg, n=3
Description: (3) There were four time points in each group and three mice at each time point.
(4) The animals were sacrificed at 2nd h, 4th h, 24th h and 48th h after dosage to take organs (brain, heart, lung, liver, kidney, spleen, stomach, large intestine, small intestine, tumor, muscle and blood).
(5) Tissue organs were weighed, and radioactivities were counted and read by a gamma counter.
(6) With a percentage (%) of a radioactivity count of Injected Dose (ID) in a radioactivity count of each gram (g) of tissue as unit (% ID/g), the line graph was drawn for showing.
The value was a percentage of Injected Dose in each gram of organs (% ID/g). […] Data was represented by an average value ±SEM (n=3).

Compound: O=C([O-])CN1CCN(CC(=O)[O-])CCN(CC(=O)[O-])CCN(CC(=O)[O-])CC1.[111In+3] [^111In-DOTA]
- drug gathering at tumor hypoxia position, nanoSPECT/CT [1]: no obvious drug gathering phenomenon
- tumor absorbability ([2]; 2nd h after caudal vein dosage): 0.88 % ID/g
- gathering degree at the tumor hypoxia position ([2]; 24th h after caudal vein dosage): 1.08 % ID/g

From patent publication US11654203B2
